Data as given in patent US20060240424A1, “Regulation of human p2y15 g protein-coupled receptor” (priority 2002, published 2006).
Where “and” joins values, the source holds several entries; their conditions need not be identical. Identical values can stand only once.

Tests used:
P2Y15 [1] = biological target: T1, P2Y15 (Homo sapiens, UniProt Q96P68); assay: Calcium mobilization assay in presence of adenosine receptor antagonists; type: cell-based; parameters: expressed in transfected cells; details: for block of calcium mobilization induced by AMP and adenosine: FIG. 4, dose-dependent
Protocol: (§1) Ligand screening was performed in a Ca^2+ flux assay as follows. Stably transfected P2Y15 GPCR-expressing cells were seeded into 96-well plates and incubated overnight at 37° C. in a tissue culture incubator. The culture medium was aspirated and replaced with […] of loading buffer containing 0.1% BSA, 20 mM HEPES, 1 mM probenecid, 0.01% pluronic F127, and 1 µM Fluo-3-AM (Molecular Probes, Eugene, Oreg.) in HBSS, and incubated for 1 hour at room temperature. The cells were then washed gently 3 times with wash buffer containing 0.1% BSA, 20 mM HEPES, 1 mM probenecid in HBSS. The washed cells were placed in an FDSS6000 functional drug screening system (Hamamatsu Photonics, Hamamatsu, Japan) and changes in cellular fluorescence were measured after adding serial dilutions of potential ligands. A panel of about 130 potential ligands was assembled by selecting known ligands of the GPCRs most closely related to P2Y15 GPCR as well as several naturally occurring chemical relatives of the ligands. The library included various bioactive lipids, eicosanoids, peptides, cannabinoids, chemokines, nucleosides, nucleotides and chemically related substances. The ligands were genereally purchased from either Sigma or R&D Systems.

[2] = system: nontransfected HEK293 cells; assay: Ca2+ flux assay in nontransfected HEK293 cells (control); type: cell-based, human; details: for calcium mobilization in response to nucleotide: both stable transfectants and nontransfected cells (endogenous P2Y1 and P2Y2)
P2Y15 GPCR = biological target: T2, P2Y15 GPCR (Homo sapiens, UniProt Q96P68); assay: Ca2+ flux assay (ligand screening) in stably transfected P2Y15 GPCR-expressing HEK293 cells; type: cell-based; details: FIG. 2A, read-out: calcium response EC50
T2 construct: expressed in transfected cells
Protocol: as §1

P2Y15 [3] = biological target: T1, P2Y15; assay: Receptor binding assay (saturation binding) on P2Y15 stable transfectants; details: whole cells, 4° C., 16 h; radiolabelled ligand
Protocol: 10^5 cells per well in 96-well plates were washed twice for 1 h with DMEM medium. […] After incubating at 4° C. for 16 h, the plates were centrifuged for 10 min at 1500 rpm and then scintillation measured on a TopCount automated scintillation counter. Binding of [^32P]-AMP was carried out under the same conditions except that instead of using SPA beads, at the end of the incubation, cells were washed three times by vacuum filtration and 100 μl scintillation fluid was added to the wells.

[4] = system: nontransfected HEK293 cells; assay: Cyclic AMP production assay in nontransfected HEK293 cells; type: cell-based, human; details: 10 μM forskolin
Protocol: (§2) The cells were then lysed and the cAMP produced was measured by a cAMP-specific ELISA. Concentrations of cAMP produced were calculated by comparing against cAMP standards measured simultaneously.

P2Y15 [5] = biological target: T1, P2Y15; assay: Cyclic AMP production assay in P2Y15-HEK293 stable transfectants; type: cell-based; parameters: expressed in transfected cells; details: for effect of pertussis toxin pretreatment on cyclic AMP production in response to ligand: pretreatment two hours with 1 μM pertussis toxin; for cyclic AMP response to ligand alone: without forskolin
Protocol: as §2

[6] = system: nontransfected HEK293 cells; assay: Competitive binding assay on nontransfected HEK293 cells; parameters: species or system human; details: for antagonism of ^3H-AMP binding to nontransfected HEK293 cells: 10 μM ^3H-AMP
Protocol: Competitive binding experiments were carried out as follows: 10^5 cells per well in 96-well plates were washed twice for 1 h with DMEM medium. Then wheatgerm agglutinin SPA beads (Amersham) at 1 mg/well were added, followed 1 h later by 10 μM [^3H]-Adenosine or 10 μM [^3H]-AMP (Amersham), and increasing concentrations of unlabeled ligand in a constant volume of HBS: 10 mM Hepes, 130 mM NaCl, 5 mM KCl, 1 mM MgCl2, 1 mM CaCl2 and 1 g/l glucose (6 μl/well)). After incubating at 4° C. for 16 h, the plates were centrifuged for 10 min at 1500 rpm and then scintillation measured on a TopCount automated scintillation counter. Ki values were determined by non-linear regression using the program Prism (Graph Pad).

P2Y15 [7] = biological target: T1, P2Y15; assay: Competitive binding assay on P2Y15 transfectants; parameters: expressed in transfected cells; details: 10 μM ^3H-adenosine; FIG. 3D; read-out: Ki for blocking binding of ^3H-adenosine to transfectants
Protocol: Competitive binding experiments were carried out as follows: 10^5 cells per well in 96-well plates were washed twice for 1 h with DMEM medium. […] After incubating at 4° C. for 16 h, the plates were centrifuged for 10 min at 1500 rpm and then scintillation measured on a TopCount automated scintillation counter. Ki values were determined by non-linear regression using the program Prism (Graph Pad).

[8] = 10 M AMP (FIG. 4A legend), read-out: Ki for blocking calcium mobilization induced by AMP
[9] = Ki for blocking calcium mobilization induced by adenosine, 10 M adenosine (FIG. 4B legend)

Compound: Cn1c(=O)c2[nH]c(-c3ccccc3)nc2n(C)c1=O [8-phenyltheophylline, 8-Phenyltheophylline]
- Ki (P2Y15 [1]; [8]): 250 nM
- Ki (P2Y15 [1]; [9]): 260 nM

Compound: O=c1ccn([C@@H]2O[C@H](COP(=O)(O)OP(=O)(O)OP(=O)(O)O)[C@@H](O)[C@H]2O)c(=O)[nH]1 [UTP]
- calcium mobilization in response to nucleotide [2]: mobilized calcium

Compound: Nc1ncnc2c1ncn2[C@@H]1O[C@H](COP(=O)(O)O)[C@@H](O)[C@H]1O [AMP, Adenosine 5′-monophosphate]
- EC50 (P2Y15 GPCR): 920 nM
- Kd (P2Y15 [3]): 18600 nM and 18800 nM
- cyclic AMP generation in nontransfected HEK293 cells [4]: did not respond strongly
- EC50 (P2Y15 [5]; in the presence of 10 μM forskolin, 30 min, FIG. 2B, read-out: generation of cyclic AMP EC50): 214 nM
- effect of pertussis toxin pretreatment on cyclic AMP production in response to ligand (P2Y15 [5]): not affected
- cyclic AMP response to ligand alone (P2Y15 [5]): only minor responses barely above the detection limit
- antagonism of ^3H-AMP binding to nontransfected HEK293 cells [6]: neither AMP nor adenosine can antagonize
- blocking ^3H-adenosine binding to nontransfected HEK293 cells ([6]; 10 μM ^3H-adenosine, FIG. 3D): little effect
- Ki (P2Y15 [7]): 24600 nM

Compound: Cn1c(=O)c2c(ncn2C)n(C)c1=O [caffeine]
- Ki (P2Y15 [1]; [8]): 2700 nM
- Ki (P2Y15 [1]; [9]): 26200 nM

Compound: Nc1ncnc2c1ncn2[C@@H]1O[C@H](COP(=O)(O)CP(=O)(O)O)[C@@H](O)[C@H]1O [AMP-CP, Adenosine 5′-(α,β-methylene)diphosphate]
- block of calcium mobilization induced by AMP and adenosine (P2Y15 [1]): effective in blocking

Compound: Nc1ncnc2c1ncn2[C@@H]1O[C@H](COP(=O)(O)OP(=O)(O)OP(=O)(O)O)[C@@H](O)[C@H]1O [ATP]
- calcium mobilization in response to nucleotide [2]: mobilized calcium

Compound: CC(C)Cn1c(=O)n(C)c(=O)c2[nH]cnc21 [IBMX, 3-isobutyl-1 methylxanthine]
- block of calcium mobilization induced by AMP and adenosine (P2Y15 [1]): able to block

Compound: Nc1ncnc2c1ncn2[C@@H]1O[C@H](CO)[C@@H](O)[C@H]1O [adenosine]
- cyclic AMP generation in nontransfected HEK293 cells [4]: generated cyclic AMP
- effect of pertussis toxin pretreatment on cyclic AMP production in response to ligand (P2Y15 [5]): not affected
- cyclic AMP response to ligand alone (P2Y15 [5]): only minor responses barely above the detection limit
- antagonism of ^3H-AMP binding to nontransfected HEK293 cells [6]: neither AMP nor adenosine can antagonize
- calcium mobilization response to adenosine in nontransfected cells ([2]; nontransfected HEK293, detected only at very high adenosine concentrations): very weak response

Compound: Cn1c(=O)c2[nH]cnc2n(C)c1=O [theophylline]
- block of calcium mobilization induced by AMP and adenosine (P2Y15 [1]): able to block
